Measurements from patent US20250320288A1, “METHOD OF TREATING VITILIGO WITH INTERFERON-GAMMA ANTIBODY” (Elixiron Immunotherapeutics (Hong Kong), priority 2022, published 2025).
“Also recorded” adds a separate entry of the source.

What was measured:
[1] = tested on: primary melanocytes; test: Cell morphology assay in melanocytes; type: cell-based, human; details: primary melanocytes, 7 days of treatment
[2] = tested on: primary melanocytes; test: Melanocyte cell viability after IFN-γ, chemokines, cell death inhibitors or 2A6Q, Day 2 and Day 7; type: cell-based, human; details: for rescue of IFN-γ induced melanocyte cell death (cell viability): melanocytes with IFN-γ, up to seven days
Procedure: To determine cell viability of melanocyte after treatment with IFN-γ, CXCL9, CXCL10, CXCL11, at Day 2, and Day 7, the cells were collected and seeded into 96-well plates. After adhesion, cells were treated with IFN-γ (0, 10, 100 ng/ml) with different compounds: 2A6Q, CXCL9, CXCL10, CXCL11, ROS scavenger (NAC), necroptosis inhibitor (NEC-1), pyroptosis inhibitor (VX-765), apoptosis inhibitor (QVD-OPH), Ferroptosis inhibitor (Liproxstaitin-1, Ferrostatin-1, DFO). Cell viability was measured using a CellTiter-Glo luminescent cell viability assay kit (Promega) according to the manufacturer's protocol. The […] of the final reaction product was measured using a luminometer (SpectraMax® iD3 Multi-Mode Microplate Reader (Molecular Devices). After calculation, the viability of control cells was 100%, and all others were normalized to control and shown as relative cell viability (%). Treatment dosage N-acetylcysteine (NAC; 0.05 mM, 1 mM), Necrostatin-1 (NEC-1; 20 μM, 2 μM), Belnacasan (VX-765; 50 μg/mL, 5 μg/mL), Quinoline-Val Asp-Difluorophenoxymethylketone (QVD-OPH; 10 μM, 2 μM), Liproxstaitin-1 (10 μM, 5 μM, 1 μM, 0.05 μM), Ferrostatin-1 (5 μM, 1 μM), Deferoxamine (DFO; 10 μM, […], 1 μM, 0.05 μM), 2A6Q (10 μg/mL), CXCL9 (10 ng/mL, 10 pg/mL), CXCL10 (10 ng/ml, 10 pg/mL), CXCL11(10 ng/mL, 10 pg/mL).

[3] = cited from earlier work

IFN-α
morphology change in melanocyte (loss of dendrite, ballooning of cytoplasm) [1]: not IFN-α was found to contributes to morphology change

CC(=O)N[C@@H](CS)C(=O)O [NAC, N-acetylcysteine]
rescue of IFN-γ induced melanocyte cell death (cell viability) [2]: did not find a rescue effect; also recorded: unable to restore

NI-0501: another anti-IFN-γ antibody, described in U.S. Pat. No. 7,700,098 B2
Key Study Findings: mortalities ([3]; at all dose groups): There were mortalities | Key Study Findings: GI tract infection caused by Shigella sp. and Campylobacter sp. ([3]; cynomolgus monkey, in vivo): infection was confirmed | Key Study Findings: monkeys early sacrificed because of severe clinical signs ([3]; from 18 monkeys): 7 monkeys were early

CXCL10: IFN-γ downstream cytokine added to melanocytes
effect on cell viability of melanocytes (individual cytokine) ([2]; day 7 of treatment): not CXCL9, CXCL10, or CXCL11 significantly decreases

CN1C(=O)C(Cc2c[nH]c3ccccc23)NC1=S (centres unmarked) [NEC-1, Necrostatin-1]
rescue of IFN-γ induced melanocyte cell death (cell viability) [2]: unable to restore

Clc1cccc(CN=C2Nc3ccccc3NC23CCNCC3)c1 [Liproxstatin-1]
rescue of IFN-γ induced melanocyte cell death (cell viability) [2]: can partially rescue

CC(C)[C@H](NC(=O)c1ccc2ccccc2n1)C(=O)N[C@@H](CC(=O)O)C(=O)COc1c(F)cccc1F [QVDOPH, Quinoline-Val Asp-Difluorophenoxymethylketone]
rescue of IFN-γ induced melanocyte cell death (cell viability) [2]: unable to restore | rescue of IFN-γ induced melanocyte cell death (cell viability) ([2]; listed as pan-caspase inhibitor): unable to rescue

CCO[C@@H]1OC(=O)C[C@@H]1NC(=O)[C@@H]1CCCN1C(=O)[C@@H](NC(=O)c1ccc(N)c(Cl)c1)C(C)(C)C [VX-765, Belnacasan]
rescue of IFN-γ induced melanocyte cell death (cell viability) [2]: unable to restore
